Assay results as given in patent US20170196888A1, “COMPOSITIONS AND METHODS FOR TREATING CANCER” (Yeda Research and Development Co. Ltd., priority 2014, published 2017).

Key:
[1] = tested on: MCF10A derivatives stably expressing ERRFI1-specific shRNAs; test: Migration assay of ERRFI1-depleted MCF10A derivatives; type: cell-based, human; conditions: ERRFI1-depleted cells
Protocol: FIG. 3A—Serum-starved MCF10A cells were treated with EGF or DEX. qPCR analysis was performed using RNA and primers corresponding to pre-mRNAs (dashed lines) or the mature forms (solid lines). FIG. 3B—A scheme depicting negative feedback regulators of EGFR signalling. FIGS. 3C-D—Cells were stimulated as in A and extracts were immunoblotted for ERRFI1, GR and ERK2. Normalized ERRFI1 signals are shown. FIGS. 3E-F—Active ERK signals (pERK) were determined, normalized and presented. FIG. 3G—MCF10A derivatives stably expressing ERRFI1-specific shRNAs were tested for migration following the indicated treatments. The results were analysed as in FIG. 1D. *p<0.05; ***p<0.0001 (one-way Anova). FIG. 3H—Serum-starved MCF10A cells were pre-incubated for 20 minutes with actinomycin D (1 μg/m1), and thereafter stimulated for the indicated time intervals with EGF or DEX. […] FIG. 3I—The pERK signals from FIG. 3H and additional experiments were quantified, normalized to total ERK2 levels and presented.
Cells (5×10^4 cell/insert) were plated in the upper compartment of a 24-well transwell tray (Corning, Acton, MA), and their migration was assayed^16. […] For collective migration, 8×10^4 cells were seeded in plastic insets (Ibidi), and after overnight incubation, the plastic barriers were removed and time-lapse images were recorded.

[2] = tested on: MCF10A cells; test: Transwell migration assay of EGF-stimulated MCF10A cells; type: cell-based, human; conditions: for inhibition of EGF-induced cell migration: MCF10A in transwell, EGF 10 ng/ml, DEX 100 nM, E2 30 nM, PRG 30 nM, MPA 100 nM, 20 hours
Protocol: MCF10A cells were grown as described^16 and stimulated with EGF (10 ng/ml) or DEX (100 nM). siRNA transfections employed Oligofectamine (Invitrogen) and ON-Target SMART (Dharmacon, Lafayette, Colo.) oligonucleotides. Lapatinib (di-p-Toluenesulfonate Salt) was purchased from LC Laboratories. Anti GR antibody for immunostaining (sc-1004, SANTA CRUZ BIOTECHNOLOGY, INC.)
Cells (5×10^4 cell/insert) were plated in the upper compartment of a 24-well transwell tray (Corning, Acton, MA), and their migration was assayed^16. Cell invasion assays were performed using BioCoat Matrigel Invasion Chambers (BD Bioscience, Franklin Lakes, N.J.). For tracking, cells were seeded (3×10^3 cells/cm^2) on collagen-coated micro-slide (from Ibidi). For collective migration, 8×10^4 cells were seeded in plastic insets (Ibidi), and after overnight incubation, the plastic barriers were removed and time-lapse images were recorded.

[3] = tested on: MCF10A cells; test: Annexin V / propidium iodide flow cytometry; type: cell-based, human; conditions: MCF10A pre-treated 24 hours with EGF, DEX or the combination
Protocol: FIG. 1J—MCF10A cells pre-treated for 24 hours with of EGF, DEX or the combination. Thereafter, cells were stained for the apoptosis marker annexin V and the necrosis marker propidium iodide (PI), and later assayed using flow cytometry.

[4] = tested on: EGF-induced genes; test: Affymetrix Exon Array time course of EGF- and DEX-regulated transcripts; type: cell-based, human; conditions: at 20 minutes
Protocol: (§1) RNA was isolated using the PerfectPure kit from 5 Prime (Hamburg, Germany). Affymetrix GeneChip Human Exon 1.0 ST arrays were used and data were deposited in Gene Expression Omnibus (GSE53405). PCR of pre-mRNA or mRNA used forward primers positioned in the second intron or exon, respectively (Table 3 below).
(§2) All reactions were performed using Power SYBR Green PCR Master Mix (Applied Biosystems, Foster City, CA). For high throughput PCR the Fluidigm® BioMark system was employed. The Affymetrix Expression Console was used for analyses of DNA-arrays, as described^51.
Conceivably, the inhibitory effect of GR involves alterations of EGF-induced transcription. Specifically, GR might affect transcript synthesis or modulate EGF-induced RNA splicing in MCF10A cells. To address such models, cells were stimulated with EGF, DEX or the combination, mRNAs were isolated along a time course from 20 minutes to four hours, and the RNA was hybridized to Affymetrix Exon Arrays which is able to resolve small changes in splicing^19. In addition, confirmatory PCR analyses are provided.

[5] = tested on: N87 human gastric cancer cells; test: N87 tumor xenograft study with day or night dosing; type: in vivo, mice
Protocol: All animal experiments were approved by the institutional committee. C57BL/6 (CD45.2, Harlan) and knockout animals were maintained under defined flora conditions and at 12 hour light-dark cycles. For daily clock studies, female mice (10-12 week old) were divided into 2 groups; one was maintained in the day-night room, and the second group was located in a special room (with inverted day-light cycles). Mice were let acclimate for at least one week prior to protein and RNA extraction. For tumor xenograft studies, 20 athymic nude (nu/nu) mice were used and maintained in a Specific Pathogen Free environment. Animals (n=10 per group) were inoculated subcutaneously in the left leg (using a sterile 22-gauge needle) with 5×10^6 N87 cells. Mice were randomized into two groups, daily treated with Lapatinib by oral gavage (40 mg/kg) in the night (2 hours after the light off) and in the day (approximately 70 minutes before light on). Treatments were started 2 weeks after cell injection. Tumor width (W) and length (L) were measured once a week with a calliper and tumor volume (V) was calculated according to the formula: V=0.5×W^2×L.

[6] = target: T1, glucocorticoid receptor (Homo sapiens, UniProt P04150); conditions: cited from earlier work
T1 sequence (P04150 1-777): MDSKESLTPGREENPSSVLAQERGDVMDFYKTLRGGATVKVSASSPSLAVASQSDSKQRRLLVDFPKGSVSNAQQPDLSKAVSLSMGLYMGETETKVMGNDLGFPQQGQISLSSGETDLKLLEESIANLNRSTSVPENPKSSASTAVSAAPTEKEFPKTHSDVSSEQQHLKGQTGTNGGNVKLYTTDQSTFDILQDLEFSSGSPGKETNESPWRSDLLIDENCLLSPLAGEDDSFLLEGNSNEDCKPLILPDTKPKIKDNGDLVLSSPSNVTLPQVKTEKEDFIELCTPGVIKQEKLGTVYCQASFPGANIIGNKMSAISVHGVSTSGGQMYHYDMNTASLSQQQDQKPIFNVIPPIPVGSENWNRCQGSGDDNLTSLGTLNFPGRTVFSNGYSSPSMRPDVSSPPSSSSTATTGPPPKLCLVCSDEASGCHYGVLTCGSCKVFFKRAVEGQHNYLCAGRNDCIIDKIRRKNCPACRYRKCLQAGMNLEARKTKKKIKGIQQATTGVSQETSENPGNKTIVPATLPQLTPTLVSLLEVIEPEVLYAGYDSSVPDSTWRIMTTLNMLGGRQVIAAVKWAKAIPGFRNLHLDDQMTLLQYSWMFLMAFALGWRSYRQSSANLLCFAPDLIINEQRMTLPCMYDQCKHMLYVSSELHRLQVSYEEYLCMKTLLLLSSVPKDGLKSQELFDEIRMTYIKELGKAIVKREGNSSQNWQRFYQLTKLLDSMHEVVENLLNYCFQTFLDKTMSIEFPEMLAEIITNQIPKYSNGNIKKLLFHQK

[7] = tested on: DUSP1 and ERRFI1; test: qPCR of negative feedback regulators (pre-mRNA and mRNA); type: cell-based, human; conditions: serum-starved MCF10A, EGF 10 ng/ml, DEX 100 nM
Protocol: as §1, §2
Analyses of defects in vulva formation in worms and aberrations in eye development in insects, two processes controlled by EGFR, helped define several evolutionary conserved and partly redundant negative feedback loops able to robustly terminate EGFR signalling^21. Since Module A (EGF^UP/DEX^UP) includes several orthologs of the invertebrate negative feedback loops, three of them were selected for further analysis. DUSP1 is the prototype of MAPK-specific phosphatases, which dephosphorylate the shared Thr-Xxx-Tyr motif of MAPKs. ERRFI1/MIG6 (also called RALT) is a previously identified steroid-inducible adaptor, which physically binds and inhibits the kinase domain of EGFR^5. […] By using primers specific for the nascent or the mature transcripts, de novo transcription of these three negative regulators was followed (FIG. 3A). […]

For `C[C@@H]1C[C@H]2[C@@H]3CCC4=CC(=O)C=C[C@]4(C)[C@@]3(F)[C@@H](O)C[C@]2(C)[C@@]1(O)C(=O)CO` [DEX, dexamethasone], which “inhibition of EGF-induced migration” value [1] is on record?
The value was 30%.

And the “inhibition of EGF-induced migration” value ([2]; control cells)?
The value was 90%.

And the “cellular toxicity, markers of apoptosis (annexin V) and necrosis (propidium iodide)” value [3]?
Its value is “excluded the possibility of cellular toxicity”.

And the “inhibitory effect on EGF-induced genes, share of maximal capacity” value [4]?
The value was 70%.

Which “therapeutic impact on tumor size and weight by time of administration” value ([5]; 40 mg/kg/day oral gavage, just before the resting phase (ZT23) versus beginning of the active phase) does the source give for `CS(=O)(=O)CCNCc1ccc(-c2ccc3ncnc(Nc4ccc(OCc5cccc(F)c5)c(Cl)c4)c3c2)o1` [Lapatinib] here?
The value was “statistically significant enhancement”.

And the “tumor angiogenesis (appearance of tumors)” value ([5]; administration during the resting phase)?
Its value is “inhibited tumor angiogenesis”.

What does the source list for `CC(=O)O[C@]1(C(C)=O)CC[C@H]2[C@@H]3C[C@H](C)C4=CC(=O)CC[C@]4(C)[C@H]3CC[C@@]21C` [MPA, medroxyprogesterone acetate]?
EC50 [6]: ~10 nM; inhibition of EGF-induced cell migration [2]: less potent

Which “inhibition of EGF-induced cell migration” value [2] does the source give for `CC(=O)[C@H]1CC[C@H]2[C@@H]3CCC4=CC(=O)CC[C@]4(C)[C@H]3CC[C@]12C` [PRG, progesterone] here?
The value was “weak or no activity”.

Which “induction of DUSP1 and ERRFI1 transcripts” value [7] does the source give for “EGF: epidermal growth factor, EGFR ligand used to stimulate MCF10A cells” here?
Its value is 3-5 fold.
